This passage reports EC50 results from patent publication US9278915B2, “Agonists of GPR40” (CONNEXIOS LIFE SCIENCES PVT LTD, priority 2010, dated 2016).

T1 sequence (O14842 whole entry): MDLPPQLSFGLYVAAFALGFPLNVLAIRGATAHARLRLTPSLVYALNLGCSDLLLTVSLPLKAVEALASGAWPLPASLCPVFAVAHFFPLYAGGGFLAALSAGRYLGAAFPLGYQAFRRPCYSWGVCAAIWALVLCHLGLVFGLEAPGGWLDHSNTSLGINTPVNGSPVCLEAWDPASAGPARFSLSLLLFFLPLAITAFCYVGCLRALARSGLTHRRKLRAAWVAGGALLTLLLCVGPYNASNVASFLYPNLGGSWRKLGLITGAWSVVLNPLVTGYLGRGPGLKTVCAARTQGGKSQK

This assay concerns the target T1, hGPR40 (Homo sapiens, UniProt O14842).
T1 construct: expressed in transfected cells
Briefly: Calcium flux assay to detect GPR40 activation. The assay is classed as cell-based. Particulars: CHO-K cells stably expressing hGPR40; Fluo-4 NW; read for 4 min at 5 s intervals. Here is the method:
Biological Activity Calium Flux Assay to Detect GPR40 Activation: CHO-K cells stably expressing hGPR40 were selected in a media containing Neomycin/G418. The cells were plated at a concentration of 20,000 cells per well in black 96-well clear bottom tissue culture treated plates. The cells were cultured for 24 h at 37° C. in a humidified 5% CO2 air environment to allow for protein expression. The next day, after removal of media from wells, Fluo-4 NW (Invitrogen) is added at 100 ul/well and the cells were incubated for 30 min at 37° C. and for a further 30 min at RT. All test compounds were diluted to appropriate concentrations in HEPES buffer. Compounds were added to the cells and the wells were read in the BioTEK synergy reader and readings were taken for 4 min with an interval of 5 s.
For orientation: EC50 means the concentration giving half of the maximal effect. `CO/N=C(/COc1ccc(COc2ccc(C(C#N)CC(=O)O)cc2)cc1)c1ccccc1` (single isomer, unassigned) [Compound 99, 3-Cyano-3-{4-[(4-{[(2E)-2-(methoxyimino)-2-phenylethyl]oxy}benzyl)oxy]phenyl}propanoic acid]: the EC50 is 0.01 to 0.1 µM.

Take `CO/N=C(\COc1ccc(COc2ccc(C(C#N)CC(=O)O)cc2)cc1)c1ccc(OC)cc1` (stereo not drawn) [Compound 66, 3-Cyano-3-{4-[(4-{[(2Z)-2-(methoxyimino)-2-(4-methoxyphenyl)ethyl]oxy}benzyl)oxy]phenyl}propanoic acid]: the EC50 was less than 0.01 µM.

For `CO/N=C(/c1ccccc1)c1cccc(COc2ccc(C(C#N)CC(=O)O)cc2)c1` (stereo not drawn) [Compound 12, 3-Cyano-3-[4-({3-[(E,Z)-(methoxyimino)(phenyl)methyl]benzyl}oxy)phenyl]propanoic acid], the EC50 is greater than 0.1 µM.

With `CO/N=C(\COc1ccc(COc2ccc(OCC(=O)O)cc2)cc1)c1ccccc1` [Compound 117, {4-[(4-{[(2Z)-2-(Methoxyimino)-2-phenylethyl]oxy}benzyl)oxy]phenoxy}acetic acid], the half-maximal effective concentration (EC50) is greater than 0.1 µM.

`CO/N=C(\COc1ccc(COc2ccc(CCC(=O)O)c(-c3c(C)noc3C)c2)cc1)c1ccccc1` [Compound 84, 3-{2-(3,5-Dimethyl-1,2-oxazol-4-yl)-4-[(4-{[(2E,2Z)-2-(methoxyimino)-2-phenylethyl]oxy}benzyl)oxy]phenyl}propanoic acid]: the EC50 is greater than 0.1 µM.

For `CO/N=C(\COc1ccc(COc2ccc(CCC(=O)O)cc2)cc1)c1ccccc1` [Compound 7, 3-{4-[(4-{[(2Z)-2-(Methoxyimino)-2-phenylethyl]oxy}benzyl)oxy]phenyl}propanoic acid], the EC50 is less than 0.01 µM.

In the case of `CO/N=C(\COc1ccc(COc2ccc(CCC(=O)O)cc2)cc1)c1ccc(S(C)(=O)=O)cc1` [Compound 92, 3-(4-{[4-({(2Z)-2-(Methoxyimino)-2-[4-(methylsulfonyl)phenyl]ethyl}oxy)benzyl]oxy}phenyl)propanoic acid], the EC50 was greater than 0.1 µM.

As for `C=CCO/N=C(\COc1ccc(COc2ccc(CCC(=O)O)cc2)cc1)c1ccccc1` [Compound 110, 3-(4-{[4-({(2E,2Z)-2-Phenyl-2-[(prop-2-en-1-yloxy)imino]ethyl}oxy)benzyl]oxy}phenyl)propanoic acid], the EC50 is less than 0.01 µM.

For `CO/N=C(\COc1ccc(COc2ccc(CCC(=O)O)c(C)c2)cc1)c1ccccc1` [Compound 38], the EC50 is greater than 0.1 µM.

Regarding `CO/N=C(\COc1ccc(COc2ccc(CCC(=O)O)cn2)cc1)c1ccccc1` [Compound 114, 3-{6-[(4-{[(2Z)-2-(Methoxyimino)-2-phenylethyl]oxy}benzyl)oxy]pyridin-3-yl}propanoic acid], the EC50 was greater than 0.1 µM.

For the compound `CO/N=C(\COc1ccc(COc2ccc(/C(C#N)=C/C(=O)O)cc2)cc1)c1ccccc1` [Compound 76, (2Z)-3-Cyano-3-{4-[(4-{[(2Z)-2-(methoxyimino)-2-phenylethyl]oxy}benzyl)oxy]phenyl}prop-2-enoic acid], the EC50 is 0.01 to 0.1 µM.

With `CO/N=C(\COc1ccc(COc2ccc(CCC(=O)O)c(C#N)c2)cc1)c1ccccc1` [Compound 42, 3-{2-Cyano-4-[(4-{[(2E,2Z)-2-(methoxyimino)-2-phenylethyl]oxy}benzyl)oxy]phenyl}propanoic acid], the EC50 was greater than 0.1 µM.

With `CO/N=C(\COc1ccc(COc2ccc(C(CC(=O)O)C3CC3)cc2)cc1)c1ccccc1` (stereo not drawn) [Compound 87, 3-Cyclopropyl-3-{4-[(4-{[(2Z)-2-(methoxyimino)-2-phenylethyl]oxy}benzyl)oxy]phenyl}propanoic acid], the EC50 was greater than 0.1 µM.

For `C=CCO/N=C(/CC(=O)O)c1ccc(OCc2ccc(OCC(=NOC)c3ccccc3)cc2)cc1` (mixture of isomers) [Compound 121, (3Z)-3-{4-[(4-{[(2E,2Z)-2-(Methoxyimino)-2-phenylethyl]oxy}benzyl)oxy]phenyl}-3-[(prop-2-en-1-yloxy)imino]propanoic acid], the EC50 is greater than 0.1 µM.

In the case of `CO/N=C(/c1ccccc1)c1cccc(CNc2ccc(CCC(=O)O)cc2)c1` [Compound 2, 3-[4-({3-[(E,Z)-(Methoxyimino)(phenyl)methyl]benzyl}amino)phenyl]propanoic acid], the EC50 lay within 0.01 to 0.1 µM.

As to `CO/N=C(/c1ccccc1)c1cccc(CNc2ccc(C3CC3C(=O)O)cc2)c1` (racemic) [Compound 13, (1R,2R)-2-[4-({3-[(E,Z)-(Methoxyimino)(phenyl)methyl]benzyl}amino)phenyl]cyclopropanecarboxylic acid], the EC50 was in the range of 0.01 to 0.1 µM.

For `CON=C(COc1ccc(COc2ccc(CCC(=O)O)c(OCC(=O)O)c2)cc1)c1ccccc1` (mixture of isomers) [Compound 89, 3-{2-(Carboxymethoxy)-4-[(4-{[(2E,2Z)-2-(methoxyimino)-2-phenylethyl]oxy}benzyl)oxy]phenyl}propanoic acid], the EC50 was greater than 0.1 µM.

With `CO/N=C(\COc1ccc(CNc2ccc(CCC(=O)O)cc2)cc1)c1ccccc1` [Compound 4, 3-{4-[(4-{[(2Z)-2-(Methoxyimino)-2-phenylethyl]oxy}benzyl)amino]phenyl}propanoic acid], the EC50 lay in the range of 0.01 to 0.1 µM.

`CO/N=C(\COc1ccc(COc2ccc(CCC(=O)O)c(OC(C)C)c2)cc1)c1ccccc1` [Compound 60, 3-{4-[(4-{[(2Z)-2-(Methoxyimino)-2-phenylethyl]oxy}benzyl)oxy]-2-(propan-2-yloxy)phenyl}propanoic acid]: the EC50 was greater than 0.1 µM.

`CO/N=C(/COc1ccc(COc2ccc(CCC(=O)O)cc2)cc1)c1ccc(C#N)cc1` (racemic) [Compound 28, 3-{4-[(4-{[(2E,2Z)-2-(4-Cyanophenyl)-2-(methoxyimino)ethyl]oxy}benzyl)oxy]phenyl}propanoic acid]: the EC50 was in the range of 0.01 to 0.1 µM.

For the compound `CCCC(CC(=O)O)c1ccc(OCc2ccc(OC/C(=N\OC)c3ccccc3)cc2)cc1` (stereo not drawn) [Compound 91, 3-{4-[(4-{[(2Z)-2-(Methoxyimino)-2-phenylethyl]oxy}benzyl)oxy]phenyl}hexanoic acid], the EC50 was greater than 0.1 µM.

As to `CO/N=C(\COc1ccc(CNc2ccc(-c3onc(C)c3CCC(=O)O)cc2)cc1)c1ccc(C#N)cc1` [Compound 72, 3-(5-{4-[(4-{[(2E,2Z)-2-(4-Cyanophenyl)-2-(methoxyimino)ethyl]oxy}benzyl)amino]phenyl}-3-methyl-1,2-oxazol-4-yl)propanoic acid], the EC50 is greater than 0.1 µM.

With `CO/N=C(\COc1ccc(COc2ccc(C(CC(=O)O)c3ccccc3)cc2)cc1)c1ccccc1` (stereo not drawn) [Compound 112, 3-{4-[(4-{[(2Z)-2-(Methoxyimino)-2-phenylethyl]oxy}benzyl)oxy]phenyl}-3-phenylpropanoic acid], the EC50 was greater than 0.1 µM.

Turning to `CO/N=C(/COc1ccc(COc2ccc(C(C#N)CC(=O)O)cc2)cc1)c1ccccc1` (racemic) [Compound 98, 3-Cyano-3-{4-[(4-{[(2E)-2-(methoxyimino)-2-phenylethyl]oxy}benzyl)oxy]phenyl}propanoic acid], the EC50 was 0.01 to 0.1 µM.

`CO/N=C(\COc1ccc(COc2ccc(/C=C/C(=O)O)c(-c3cc(C)on3)c2)cc1)c1ccccc1` [Compound 97, (2E,2Z)-3-{4-[(4-{[(2Z)-2-(Methoxyimino)-2-phenylethyl]oxy}benzyl)oxy]-2-(5-methyl-1,2-oxazol-3-yl)phenyl}prop-2-enoic acid]: the EC50 was greater than 0.1 µM.

Regarding `CON=C(COc1ccc(CNc2ccc(C3CC3C(=O)O)cc2)cc1)c1ccccc1` (mixture of isomers) [Compound 48, Sodium 2-{4-[(4-{[(2E,2Z)-2-(methoxyimino)-2-phenylethyl]oxy}benzyl)amino]phenyl}cyclopropanecarboxylate], the EC50 is 0.01 to 0.1 µM.

As to `CO/N=C(\COc1ccc(COc2ccc(C(C#N)CC(=O)O)cc2)cc1)c1ccc(F)cc1` (stereo not drawn) [Compound 54, Sodium 3-cyano-3-{4-[(4-{[(2Z)-2-(4-fluorophenyl)-2-(methoxyimino)ethyl]oxy}benzyl)oxy]phenyl}propanoate], the EC50 was in the range of 0.01 to 0.1 µM.

Turning to `CO/N=C(\COc1ccc(COc2ccc(CCC(=O)O)c(F)c2)cc1)c1ccc(C#N)cc1` [Compound 39], the EC50 is less than 0.01 µM.

Turning to `CO/N=C(/c1ccccc1)c1cccc(COc2ccc(CCC(=O)O)cc2)c1` [Compound 1, 3-[4-({3-[(E,Z)-(methoxyimino)(phenyl)methyl]benzyl}oxy)phenyl]propanoic acid], the EC50 was in the range of 0.01 to 0.1 µM.

Turning to `CCOC(=O)CCc1ccc(OCc2ccc(OC/C(=N\OC)c3ccccc3)cc2)cc1OCC(=O)O` [Compound 90, {2-(3-Ethoxy-3-oxopropyl)-5-[(4-{[(2E,2Z)-2-(methoxyimino)-2-phenylethyl]oxy}benzyl)oxy]phenoxy}acetic acid], the EC50 was greater than 0.1 µM.

As to `CO/N=C(/COc1ccc(COc2ccc(-c3c(C(=O)O)noc3C)cc2)cc1)c1ccccc1` [Compound 32, 4-{4-[(4-{[(2E,2Z)-2-(Methoxyimino)-2-phenylethyl]oxy}benzyl)oxy]phenyl}-5-methyl-1,2-oxazole-3-carboxylic acid], the concentration for a half-maximal effect (EC50) is greater than 0.1 µM.

For the compound `CO/N=C(\COc1ccc(COc2ccc(C(CC(=O)O)C(N)=O)cc2)cc1)c1ccccc1` (stereo not drawn) [Compound 93, 4-Amino-3-{4-[(4-{[(2Z)-2-(methoxyimino)-2-phenylethyl]oxy}benzyl)oxy]phenyl}-4-oxobutanoic acid], the EC50 is greater than 0.1 µM.

In the case of `CO/N=C(/COc1ccc(COc2ccc(C(C#N)CC(=O)O)cc2)cc1)c1ccc(F)cc1` (racemic) [Compound 22, 3-Cyano-3-{4-[(4-{[(2E,2Z)-2-(4-fluorophenyl)-2-(methoxyimino)ethyl]oxy}benzyl)oxy]phenyl}propanoic acid], the EC50 is less than 0.01 µM.
